The target of one data set is T1, JAK1(h) (Homo sapiens, UniProt P23458).
T1 construct: purchased Eurofins (UK)
The data set is described as follows: In vitro activity test of JAK1 kinase ([γ-33P]-ATP filter assay, Eurofins). The format is biochemical. On the procedure: Recombinant human JAK1, JAK2, JAK3, and Tyk2 proteases, along with major instruments and reagents, were provided by Eurofins in the UK.
(§1) JAK2, JAK3, and TYK2 were diluted with: 20 mM 3-(N-morpholino)propanesulfonic acid (MOPS), 1 mM EDTA, 0.01% Brij-35.5% glycerol, 0.1% β-mercaptoethanol, 1 mg/mL BSA; JAK1 was diluted with: 20 mM TRIS, 0.2 mM EDTA, 0.1% β-mercaptoethanol, 0.01% Brij-35.5% glycerol. The compound of formula (I) was prepared as a 100% DMSO solution and diluted to 50 times the final assay concentration. The test compound was subjected to a 3-fold serial dilution, with final concentrations ranging from 10 µM to 0.001 µM across 9 concentrations, and the DMSO content in the detection reaction was 2%. The working stock solution of this compound was added as the first component of the reaction to the assay wells, followed by the addition of the remaining components according to the protocol detailed below.
JAK1(h) was incubated with 20 mM Tris/HCl pH 7.5, 0.2 mM EDTA, 500 µM MGEEPLYWSFPAKKK, 10 mM magnesium acetate, and [γ-^33P]-ATP (activity and concentration adjusted as needed). The reaction was initiated by adding the Mg/ATP mixture and incubated at room temperature for 40 minutes, then terminated by adding 0.5% phosphoric acid. […]
The IC50 results were analyzed using XLFIT5 (205 formula) from IDBS, as detailed in Table 12. […]

The target of the next data set is T2, TYK2(h) (Homo sapiens, UniProt P29597).
T2 construct: purchased Eurofins (UK)
T2 sequence (P29597 whole entry): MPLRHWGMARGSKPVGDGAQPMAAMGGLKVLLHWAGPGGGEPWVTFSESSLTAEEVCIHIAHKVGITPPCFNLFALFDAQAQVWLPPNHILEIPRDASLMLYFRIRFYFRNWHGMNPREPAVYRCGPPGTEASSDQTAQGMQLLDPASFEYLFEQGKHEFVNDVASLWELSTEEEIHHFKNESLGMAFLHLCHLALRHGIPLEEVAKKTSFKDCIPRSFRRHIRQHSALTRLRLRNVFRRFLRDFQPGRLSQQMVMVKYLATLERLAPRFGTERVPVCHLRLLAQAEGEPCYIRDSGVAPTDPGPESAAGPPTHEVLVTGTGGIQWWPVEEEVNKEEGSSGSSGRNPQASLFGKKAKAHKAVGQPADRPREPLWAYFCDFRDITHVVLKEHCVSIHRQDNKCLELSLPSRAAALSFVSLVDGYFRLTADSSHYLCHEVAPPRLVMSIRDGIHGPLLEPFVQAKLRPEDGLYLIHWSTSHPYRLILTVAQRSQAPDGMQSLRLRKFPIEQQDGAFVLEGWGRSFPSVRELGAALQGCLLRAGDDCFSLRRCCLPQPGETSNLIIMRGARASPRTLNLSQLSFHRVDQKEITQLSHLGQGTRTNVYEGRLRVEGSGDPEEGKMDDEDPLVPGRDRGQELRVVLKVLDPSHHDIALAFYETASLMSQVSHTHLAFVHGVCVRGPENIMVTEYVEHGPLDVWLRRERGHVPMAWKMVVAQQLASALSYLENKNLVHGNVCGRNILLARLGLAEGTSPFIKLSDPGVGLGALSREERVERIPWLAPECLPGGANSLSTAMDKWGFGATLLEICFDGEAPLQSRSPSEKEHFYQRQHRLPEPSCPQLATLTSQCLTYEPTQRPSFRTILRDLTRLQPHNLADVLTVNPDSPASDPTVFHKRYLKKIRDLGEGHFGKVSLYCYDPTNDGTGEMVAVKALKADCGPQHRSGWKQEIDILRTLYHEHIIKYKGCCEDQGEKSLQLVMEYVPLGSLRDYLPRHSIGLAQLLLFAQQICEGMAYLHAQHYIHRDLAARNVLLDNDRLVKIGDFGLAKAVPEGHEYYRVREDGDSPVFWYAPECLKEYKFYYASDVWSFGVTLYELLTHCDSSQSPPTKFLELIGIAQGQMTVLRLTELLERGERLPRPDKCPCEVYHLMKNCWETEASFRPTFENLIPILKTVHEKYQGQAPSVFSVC
The data set is described as follows: In vitro activity test of TYK2 kinase ([γ-33P]-ATP filter assay, Eurofins). It is filed as biochemical. As to the method:
as §1, with “Recombinant human JAK1, JAK2, JAK3, and Tyk2 proteases, along with major instruments and reagents, were provided by Eurofins in the UK. JAK2,” for “JAK2,”, “below. TYK2(h) was incubated with 8 mM MOPS pH 7.0, 0.2 mM EDTA, 250 µM GGMEDIYFEFMGGKKK, 10 mM magnesium acetate, and [γ-^33P]-ATP (activity and concentration adjusted as needed). The reaction was initiated by adding the Mg/ATP mixture and incubated at room temperature for 40 minutes, then terminated by adding 0.5% phosphoric acid. […] The IC50 results were analyzed using XLFIT5 (205 formula) from IDBS, as detailed in Table 12. […]” for “below.”

The next data set concerns paw swelling. Put plainly: Paw swelling and scores in mice after oral administration (only summarised, no method given). The format is in vivo.

SMILES strings stand for the structures.

T1 sequence (P23458 whole entry): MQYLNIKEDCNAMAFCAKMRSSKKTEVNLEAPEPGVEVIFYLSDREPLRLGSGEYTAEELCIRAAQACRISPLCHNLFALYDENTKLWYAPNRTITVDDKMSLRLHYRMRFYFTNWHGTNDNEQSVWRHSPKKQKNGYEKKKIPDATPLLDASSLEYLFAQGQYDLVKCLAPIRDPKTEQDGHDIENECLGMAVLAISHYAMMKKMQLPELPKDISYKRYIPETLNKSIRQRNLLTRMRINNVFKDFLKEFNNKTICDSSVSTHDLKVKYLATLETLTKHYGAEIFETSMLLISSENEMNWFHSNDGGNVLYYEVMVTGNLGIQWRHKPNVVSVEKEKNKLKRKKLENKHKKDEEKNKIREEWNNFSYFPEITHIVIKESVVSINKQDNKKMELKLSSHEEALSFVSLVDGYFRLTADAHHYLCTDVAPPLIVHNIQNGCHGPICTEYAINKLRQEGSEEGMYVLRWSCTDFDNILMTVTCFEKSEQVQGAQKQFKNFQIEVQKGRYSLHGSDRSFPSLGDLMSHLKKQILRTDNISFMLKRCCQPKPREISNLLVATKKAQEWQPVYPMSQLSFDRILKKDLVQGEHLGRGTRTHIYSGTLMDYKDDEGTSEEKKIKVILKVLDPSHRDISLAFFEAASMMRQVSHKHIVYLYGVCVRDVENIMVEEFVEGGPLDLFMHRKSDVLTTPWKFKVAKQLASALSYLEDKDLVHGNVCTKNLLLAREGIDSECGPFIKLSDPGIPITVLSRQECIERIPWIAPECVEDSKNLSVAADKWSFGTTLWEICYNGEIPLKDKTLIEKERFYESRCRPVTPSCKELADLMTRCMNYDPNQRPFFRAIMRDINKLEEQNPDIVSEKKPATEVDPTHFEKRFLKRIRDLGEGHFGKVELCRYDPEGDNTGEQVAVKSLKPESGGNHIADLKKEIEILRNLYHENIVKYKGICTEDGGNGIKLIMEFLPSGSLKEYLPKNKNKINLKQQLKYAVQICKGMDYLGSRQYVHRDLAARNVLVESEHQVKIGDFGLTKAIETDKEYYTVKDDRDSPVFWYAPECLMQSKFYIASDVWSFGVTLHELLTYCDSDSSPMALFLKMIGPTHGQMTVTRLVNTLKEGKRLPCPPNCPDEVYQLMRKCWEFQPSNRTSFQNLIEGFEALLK

Molecule `Cn1cc(-c2cn3nccc3c(-c3cnn([C@]4(CC#N)CC5(C[C@H](C#N)C5)C4)c3)n2)cn1` (stereo partly drawn) [Compound of formula (I)] showed an IC50 on JAK1(h) of 10 nM. The molecule also displayed an IC50 on TYK2(h) of 0.9 nM. The “selective inhibition against TYK2 and/or JAK1 and/or JAK2” value at TYK2(h) (in vitro activity tests for the four kinase subtypes JAK1, JAK2, JAK3, and TYK2) is on record as “good selective inhibition”. In the data set on paw swelling, the “degree of paw swelling (in words)” value is on record as “significantly improve”; the “effect on animal body weight (in words)” value is reported as “no significant effect”; the “scores and relative scores (in words)” value is on record as “ameliorate”.

Broadly, the IC50 is the concentration at which inhibition is half-maximal. A lower IC50 goes with greater potency in that assay.

Source of the values: EP4711367A1, “PYRAZOLOPYRAZINE COMPOUND AND METHOD FOR PREPARING CRYSTAL FORM THEREOF” (CMS Research & Development Pte. Ltd., priority 2023, dated 2024).
